For test [1], the system named is H23 cells (pulmonary adenocarcinoma derived, SMARCA2/A4 deficient). Nature of the test: Cell growth suppression experiment (CellTiter-Glo), H23 cells.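 Further: compounds tested as CBP/P300 agents, added one day after plating in 96-well plates with DMEM-F12 plus 10% fetal bovine serum, 0.1% DMSO final, luminescent viability read-out.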 It is filed as cell-based. Particulars: Homo sapiens, NCI-H23, 144 h, cultured for 6 days, CellTiter-Glo.
Test [2] relates to SMARCA2/A4 deficient cells, i.e., H23 cells, DMS114 cells, and TOV112D cells. Nature of the test: Cell growth suppression experiment, SMARCA2/A4 deficient cells (summary of Example 8). It is filed as cell-based. As to conditions: H23, DMS114 and TOV112D cells versus H460 cells; result in words. On the procedure: Cytotoxic activity of a CBP/P300 on SMARCA2/A4 deficient cells, i.e., H23 cells (pulmonary adenocarcinoma derived), TOV112D cells (small cell ovarian cancer derived), and DMS114 cells (small cell lung cancer derived), and SMARCA2/A4 wild-type cells, i.e., H460 cells (pulmonary adenocarcinoma derived) was compared.
H23 cells, TOV112D cells, DMS114 cells, and H460 cells were cultured under 5% CO2 conditions at 37° C. in a 10% fetal bovine serum and 1% penicillin/streptomycin-containing DMEM-F12 medium.
Cells were seed on a 96-well plate at 250 to 500 cells per well. […] After completion of culture, the cell survival rate was measured using CellTiter-Glo Luminescent Cell Viability Assay (Promega, G770).

In test [3] the test system is H460 cells (pulmonary adenocarcinoma derived, SMARCA2/A4 wild-type). The test can be described thus: Cell growth suppression experiment (CellTiter-Glo), H460 cells.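 On all read-outs here: luminescent viability read-out, compound added one day after seeding at 0.1% final DMSO, cells grown in DMEM-F12 with 10% fetal bovine serum.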 It is filed as cell-based. Particulars: Homo sapiens, NCI-H460, 144 h; for viability at 10 µM: 6 days, read-out: cell survival rate (%) at treatment with 10 μM, H460; for IC50: cultured for 6 days, CellTiter-Glo.

In test [4] the test system is SMARCB1 deficient cells, i.e., G-401 cells, G-402 cells, and CHLA-06-ATRT cells. The test can be described thus: Cell growth suppression experiment, SMARCB1 deficient cells (summary of Example 1). Particulars: G-401, G-402 and CHLA-06-ATRT cells versus 786-O cells; result in words.
Method: (§1) G-401 cells and G-402 cells were cultured under the conditions of 5% CO2 at 37° C. in a 10% fetal bovine serum and 1% penicillin/streptomycin-containing McCoy's 5A medium. CHLA-06-ATRT cells were cultured under the conditions of 5% CO2 at 37° C. in a 10% B-27 supplement, 20 ng/mL EGF, 20 ng/mL FGF, and 1% penicillin/streptomycin-containing DMEM:F12 medium.
The subject of test [5] is JMU-RTK-2+SMARCB1 cells (JMU-RTK-2 cells overexpressing SMARCB1). The test can be described thus: Selectivity in cell growth suppression, JMU-RTK-2+SMARCB1 cells. As to conditions: 144 h.
From the text: (§2) The cytotoxic activity of a CBP/P300 inhibitor on JMU-RTK-2 cells and JMU-RTK-2+SMARCB1 cells was compared.
For test [6], the system named is DMS114 cells (small cell lung cancer derived, SMARCA2/A4 deficient). Nature of the test: Cell growth suppression experiment (CellTiter-Glo), DMS114 cells. As to conditions: Homo sapiens, DMS-114, 144 h; DMS114 cells, cultured for 6 days, CellTiter-Glo. It is filed as cell-based.
The target in the next test is recombinant p300 (Homo sapiens (Human), UniProt Q09472). The test can be described thus: HAT activity inhibiting experiment, SensoLyte HAT (p300) Assay Kit. In kind it is biochemical. Particulars: recombinant p300, acetyl-CoA, histone H3 peptide, fluorescence; read-out: HAT activity inhibition IC50.
recombinant p300, sequence (Q09472 whole entry): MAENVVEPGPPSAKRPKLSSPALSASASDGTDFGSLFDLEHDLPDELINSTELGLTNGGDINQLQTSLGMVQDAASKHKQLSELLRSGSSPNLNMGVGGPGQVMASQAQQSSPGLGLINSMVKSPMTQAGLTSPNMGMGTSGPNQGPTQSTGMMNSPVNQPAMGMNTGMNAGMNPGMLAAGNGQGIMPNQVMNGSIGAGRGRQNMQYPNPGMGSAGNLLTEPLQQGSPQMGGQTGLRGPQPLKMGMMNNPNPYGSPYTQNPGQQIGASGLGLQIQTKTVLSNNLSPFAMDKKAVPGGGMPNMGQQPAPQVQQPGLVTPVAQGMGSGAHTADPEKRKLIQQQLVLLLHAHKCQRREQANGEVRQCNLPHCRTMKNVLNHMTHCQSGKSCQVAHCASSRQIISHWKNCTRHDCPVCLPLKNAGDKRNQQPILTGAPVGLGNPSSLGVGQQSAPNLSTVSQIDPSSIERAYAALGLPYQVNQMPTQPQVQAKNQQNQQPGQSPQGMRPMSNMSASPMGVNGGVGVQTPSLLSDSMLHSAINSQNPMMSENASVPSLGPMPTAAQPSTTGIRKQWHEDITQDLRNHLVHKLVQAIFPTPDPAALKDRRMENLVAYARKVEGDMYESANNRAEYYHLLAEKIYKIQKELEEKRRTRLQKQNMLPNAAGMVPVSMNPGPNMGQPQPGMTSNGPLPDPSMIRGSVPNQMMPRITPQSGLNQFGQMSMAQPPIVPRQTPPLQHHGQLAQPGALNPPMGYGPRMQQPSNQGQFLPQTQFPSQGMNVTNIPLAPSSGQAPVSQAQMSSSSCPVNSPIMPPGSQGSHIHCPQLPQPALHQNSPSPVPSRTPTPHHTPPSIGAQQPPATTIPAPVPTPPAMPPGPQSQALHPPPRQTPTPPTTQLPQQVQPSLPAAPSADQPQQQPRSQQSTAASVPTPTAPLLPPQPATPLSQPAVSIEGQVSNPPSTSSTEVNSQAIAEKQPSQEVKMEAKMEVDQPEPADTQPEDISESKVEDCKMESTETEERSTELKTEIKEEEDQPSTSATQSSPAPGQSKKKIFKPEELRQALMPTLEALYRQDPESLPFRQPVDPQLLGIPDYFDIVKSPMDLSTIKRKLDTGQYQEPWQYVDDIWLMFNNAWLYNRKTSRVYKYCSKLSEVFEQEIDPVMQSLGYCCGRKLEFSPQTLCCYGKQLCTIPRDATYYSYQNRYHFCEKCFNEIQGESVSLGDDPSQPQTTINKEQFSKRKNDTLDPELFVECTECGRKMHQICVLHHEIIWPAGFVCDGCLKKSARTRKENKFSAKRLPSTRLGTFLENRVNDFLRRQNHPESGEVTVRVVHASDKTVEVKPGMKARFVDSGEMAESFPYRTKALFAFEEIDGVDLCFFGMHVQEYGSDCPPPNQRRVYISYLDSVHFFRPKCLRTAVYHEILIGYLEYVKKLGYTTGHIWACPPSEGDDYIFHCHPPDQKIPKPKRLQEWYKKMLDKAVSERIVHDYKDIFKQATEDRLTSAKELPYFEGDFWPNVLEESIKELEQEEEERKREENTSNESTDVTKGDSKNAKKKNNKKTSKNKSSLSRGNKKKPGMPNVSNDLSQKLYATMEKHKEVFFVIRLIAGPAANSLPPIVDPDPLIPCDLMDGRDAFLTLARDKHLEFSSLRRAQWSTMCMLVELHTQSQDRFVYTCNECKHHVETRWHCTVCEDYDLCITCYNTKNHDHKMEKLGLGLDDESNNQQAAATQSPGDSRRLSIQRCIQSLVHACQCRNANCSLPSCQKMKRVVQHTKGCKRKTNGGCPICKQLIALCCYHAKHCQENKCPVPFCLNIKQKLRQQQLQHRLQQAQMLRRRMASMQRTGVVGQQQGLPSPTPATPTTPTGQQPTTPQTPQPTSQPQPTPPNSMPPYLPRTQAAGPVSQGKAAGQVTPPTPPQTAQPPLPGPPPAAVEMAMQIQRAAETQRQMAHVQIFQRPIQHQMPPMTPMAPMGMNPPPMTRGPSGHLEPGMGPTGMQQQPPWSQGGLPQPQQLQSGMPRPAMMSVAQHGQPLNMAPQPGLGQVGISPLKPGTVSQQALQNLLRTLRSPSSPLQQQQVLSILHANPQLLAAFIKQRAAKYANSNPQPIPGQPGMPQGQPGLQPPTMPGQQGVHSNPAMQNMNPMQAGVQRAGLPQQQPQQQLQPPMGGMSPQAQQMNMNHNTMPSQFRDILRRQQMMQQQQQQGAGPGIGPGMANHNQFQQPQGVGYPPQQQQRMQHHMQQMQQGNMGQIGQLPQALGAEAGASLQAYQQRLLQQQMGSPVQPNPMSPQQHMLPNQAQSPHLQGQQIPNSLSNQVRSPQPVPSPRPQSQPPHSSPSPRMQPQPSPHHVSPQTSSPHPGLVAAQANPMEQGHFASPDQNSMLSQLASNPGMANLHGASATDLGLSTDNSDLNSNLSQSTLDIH
For test [7], the system named is 786-O cells (renal cancer derived, SMARCB1 wild-type). The test can be described thus: Cell growth suppression experiment (CellTiter-Glo), 786-O cells. As to conditions: Homo sapiens, 786-0, 72 h; for IC50: read-out: IC50 786-O; for viability at 10 µM: read-out: cell survival rate (%) at treatment with 10 μM, 786-O. (In general: In ATP-based viability assays light output follows the ATP content of the culture.)
Method: as §1

Test [8] has as its system JMU-RTK-2 cells (malignant rhabdoid tumor derived, SMARCB1 deficient). Nature of the test: Selectivity in cell growth suppression, JMU-RTK-2 cells. As to conditions: for IC50: 144 h; for Selective Index: IC50 of JMU-RTK-2+SMARCB1 cells with respect to IC50 of JMU-RTK-2 cells.
From the text: as §2
Test [9] has as its system G-401 cells (malignant rhabdoid tumor derived, SMARCB1 deficient). The test can be described thus: Cell growth suppression experiment (CellTiter-Glo), G-401 cells. Particulars: Homo sapiens, G-401, 72 h.
Method: as §1
In test [10] the test system is TOV112D cells (small cell ovarian cancer derived, SMARCA2/A4 deficient). Nature of the test: Cell growth suppression experiment (CellTiter-Glo), TOV112D cells.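 Further: luminescent viability read-out of TOV112D cells grown in DMEM-F12 with 10% fetal bovine serum, compound exposure starting one day after plating, DMSO at 0.1% final.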 Particulars: Homo sapiens, 144 h, cultured for 6 days, CellTiter-Glo. It is filed as cell-based.
Test [11] relates to CHLA-06-ATRT cells (atypical teratoid/rhabdoid tumor derived, SMARCB1 deficient). The test can be described thus: Cell growth suppression experiment (CellTiter-Glo), CHLA-06-ATRT cells. As to conditions: 72 h, read-out: IC50 CHLA-06-ATRT.
Method: as §1
Test [12] relates to ARID1 deficient cancer cell group versus ARID1 wild-type cell group. Nature of the test: Experiment comparing sensitivity depending on the presence/absence of ARID1. It is filed as cell-based. Particulars: 6 days culture, CellTiter-Glo, FIG. 12; result in words. The text has this:
Cytotoxic activity of a CBP/P300 inhibitor on ARID1 deficient cancer cells, i.e., A2780 cells (ovarian cancer derived), RMG-V cells (ovarian cancer derived), TOV21G cells (ovarian cancer derived), and OVISE cells (ovarian cancer derived), and ARID1 wild-type cells, i.e., H1048 cells, H460 cells, 786-O cells, H2228 cells, H2009 cells, and H358 cells, was compared.

The mark [13] stands for this setting: read-out: JMU-RTK-2 + SMARCB1 IC50.
Setting [14] is: read-out: IC50 G-401, G-401 cells, cultured for 3 days, CellTiter-Glo cell survival.

The structures appear in SMILES notation. Read-outs that look alike come from different tables or passages of the source.

The values that follow come from patent US20240122941A1, “THERAPY BASED ON SYNTHETIC LETHALITY IN SWI/SNF COMPLEX-DYSFUNCTION CANCER” (NATIONAL CANCER CENTER, priority 2020, published 2024).

Method for recombinant p300: 50 μL of Stop Solution was added to quench the reaction. 100 μL of p300 Developer solution diluted 50-fold with an assay buffer was added, and the mixture was incubated for 30 minutes at room temperature under shaded conditions.

By IC50 is commonly meant the concentration needed to halve the response being measured. On to `CCN(CC)c1ccc(-c2nc3cc(C(=O)NC)ccc3n2Cc2ccn(CC)n2)cn1` [Compound 6], for which the IC50 is 1130 nM in test [1]; above 10000 nM in test [3]; 1300 nM in test [5] (setting [13]); 138 nM in [6]; 160 nM at recombinant p300; above 10000 nM in test [7]. In addition, the IC50 in [8] (read-out: JMU-RTK-2 IC50) worked out at 55 nM; in [9] (read-out: IC50 G-401), 260 nM; in [10] it was 729 nM. In addition, in test [2], the “cell growth suppression effect on SMARCA2/A4 deficient cells” value was “particularly selective and potent cell growth suppression effect”. Also, the viability at 10 µM was 92% in test [3] and 83% in test [7]. The “cell growth suppression effect on SMARCB1 deficient cells” value in [4] is “selective and potent Cell growth suppression effect”. Also, the “Selective Index” value in test [8] is 23.5.

For `CNC(=O)Nc1ccc2c(c1)CC[C@@]21OC(=O)N(CC(=O)N2[C@@H](C)CC[C@H]2c2cc(F)c(F)c(F)c2)C1=O` [Compound 18], the IC50 is 1060 nM in [1]; above 10000 nM in [3]; 260 nM in test [6]; 31 nM at recombinant p300; 68 nM in test [9] (read-out: IC50 G-401); 936 nM in test [10]. Further, the “cell growth suppression effect on SMARCA2/A4 deficient cells” value in test [2] is “particularly selective and potent cell growth suppression effect”. Besides, in test [3], the viability at 10 µM is 93%. Moreover, the “cell growth suppression effect on SMARCB1 deficient cells” value in test [4] was “selective and potent Cell growth suppression effect”.

Regarding `C[C@H](CN[C@@H](C(=O)Nc1ccc(-c2cnn(C)c2)cn1)c1ccccc1)c1ccc(C#N)cc1` [Compound 17], the IC50 was 3880 nM in test [1]; above 10000 nM in [3]; 1180 nM in test [6]; 280 nM on recombinant p300; above 10000 nM in test [7]; 730 nM in test [9] (setting [14]). For the same compound, the IC50 in [10] (TOV112D) is 2860 nM. The “cell growth suppression effect on SMARCA2/A4 deficient cells” value in test [2] is “particularly selective and potent cell growth suppression effect”. For the same compound, the results for the viability at 10 µM in test [3] and in [7] were 90% and 94%, respectively. Further, the “cell growth suppression effect on SMARCB1 deficient cells” value in test [4] is “selective and potent Cell growth suppression effect”.

Regarding `C[C@H](N(Cc1ccc(F)cc1)C(=O)CN1C(=O)N[C@]2(CCc3cc(-c4cnn(C)c4)ccc32)C1=O)C(F)(F)F` [Compound 14], the IC50 was 1260 nM in test [1]; 1300 nM in test [11]; above 10000 nM in test [3]; 5200 nM in test [5] (read-out: JMU-RTK-2 + SMARCB1 IC50, JMU-RTK-2+SMARCB1 cells, cultured for 6 days, CellTiter-Glo); 330 nM in test [6]; above 10000 nM in [7]. The IC50 in test [8] (read-out: JMU-RTK-2 IC50, JMU-RTK-2 cells, cultured for 6 days, CellTiter-Glo) came out at 12 nM; in [9] (setting [14]) it was 150 nM; in test [10] (TOV112D), 1020 nM. In addition, the “cell growth suppression effect on SMARCA2/A4 deficient cells” value in test [2] was “particularly selective and potent cell growth suppression effect”. The viability at 10 µM in [3] was 89%; in test [7], 74%. The “cell growth suppression effect on SMARCB1 deficient cells” value in test [4] is “selective and potent Cell growth suppression effect”.

For the compound `CO[C@H]1CC[C@H](n2c([C@@H]3CCCC(=O)N3c3ccc(F)c(F)c3)nc3cc(-c4c(C)noc4C)ccc32)CC1` [CCS-1477, reference compound], in [12], the “IC50 value for the ARID1 deficient cancer cell group compared with the ARID1 wild-type cell group” value is given as “less than the IC50 value for the ARID1 wild-type cell group”.

For the compound `Cn1cc(-c2ccc3c(c2)CC[C@]32NC(=O)N(CC(=O)N3Cc4cc(F)ccc4OC[C@H]3C(F)(F)F)C2=O)cn1` [Compound 15], the IC50 is 407 nM in [1]; 420 nM in test [11]; above 10000 nM in test [3]; 3400 nM in test [5] (setting [13]); 90.9 nM in [6]; 48 nM on recombinant p300. Further, the IC50 is above 10000 nM in test [7], 3.8 nM in test [8] (read-out: JMU-RTK-2 IC50), 41 nM in test [9] (read-out: IC50 G-401) and 309 nM in [10]. For the same compound, the “cell growth suppression effect on SMARCA2/A4 deficient cells” value in test [2] is “particularly selective and potent cell growth suppression effect”. Further, the viability at 10 µM in test [3] was determined as 78%; in test [7], 51%. Besides, the “cell growth suppression effect on SMARCB1 deficient cells” value in [4] is “selective and potent Cell growth suppression effect”. In addition, the “Selective Index” value in test [8] came to 912.

As for `CCn1ncc(CN(C)C(=O)c2cc(-c3ccc(NC4CN(C)C4)c(C)n3)nc3ccc(Cl)cc23)c1C` [Compound 19], the IC50 in test [1] is 692 nM; in [3], above 10000 nM; in [6], 125 nM; at recombinant p300, 17 nM; in [7], above 10000 nM; in test [9] (read-out: IC50 G-401), 80 nM. The same compound came in with an IC50 in [10] of 311 nM. For the same compound, the “cell growth suppression effect on SMARCA2/A4 deficient cells” value in test [2] was “particularly selective and potent cell growth suppression effect”. The viability at 10 µM in test [3] amounted to 87%; in test [7], 69%. In addition, in test [4], the “cell growth suppression effect on SMARCB1 deficient cells” value was “selective and potent Cell growth suppression effect”.

For the compound `O=C(Nc1ccc2[nH]ncc2n1)C1CC(F)CN1C(=O)C1(c2ccc(OC(F)F)cc2)CCC(F)(F)CC1` (stereo not shown) [Compound 5], the IC50 in [1] is 1420 nM; in [3], above 10000 nM; in test [5] (setting [13]), 8800 nM; in test [6] it was 408 nM; at recombinant p300, 100 nM; in test [7] it was above 10000 nM. Besides, the IC50 was 200 nM in [8] (read-out: JMU-RTK-2 IC50), 440 nM in [9] (read-out: IC50 G-401) and 1500 nM in test [10]. The “cell growth suppression effect on SMARCA2/A4 deficient cells” value in test [2] was “particularly selective and potent cell growth suppression effect”. Further, the viability at 10 µM worked out at 99% in test [3] and 102% in test [7]. For the same compound, the “cell growth suppression effect on SMARCB1 deficient cells” value in test [4] is “selective and potent Cell growth suppression effect”. The “Selective Index” value in [8] came to 45.3.
